From paper PMC6013495, “Development of a Novel Backbone Cyclic Peptide Inhibitor of the Innate Immune TLR/IL1R Signaling Protein MyD88” (Scientific Reports, 2018)

Assays:
[1] = molecular target: T1, human MyD88 TIR domain (aa 150–296) (Homo sapiens, UniProt Q99836); experiment: Competitive binding assay, Biotin-MyDI on recombinant SUMO-MyD88-TIR; settings: SUMO-MyD88-TIR 8 µg/ml coated, Streptavidin-HRP read-out
T1 construct: human MyD88 TIR domain residues 150–296; His tag; made in house; host or cells: E. coli BL21 C43 (DE3)
Description: A synthetic DNA fragment corresponding to the cDNA encoding human MyD88 TIR domain residues 150–296 with BamH/Xhol restriction enzymes was from IDT (Integrated DNA technologies, IA, USA). DNA was amplified with the Ready-mix PCR kit (Sigma), and ligated (New England BioLabs, MA, USA) with the restriction enzymes BamH and Xhol (TaKaRa, Kusatsu, Shiga Prefecture, Japan) to pETM-11 SUMO3GFP fusion vector for protein expression in E. coli, a gift from the EMBL protein expression and purification core facility. Plasmids were gel purified with PureLink Quick Gel Extraction kit (Invitrogen, San Diego, CA, USA), sequence verified, and transformed to (C2987) NEB Dh5a competent cells (New England BioLabs) and amplified with a QIAGEN plasmid midiprep kit. The recombinant fusion protein- SUMO-MyD88-TIR was expressed in E. coli BL21 C43 (DE3) cells (Lucigen, WI, USA). E. coli BL21 C43(DE3) were grown in 2xYT medium containing 1% glucose, […] MgSO4 and 20xNPS (100 mM PO4, 25mMSO4, 50 mM NH4. 100 mM Na, 50 mM K) up to mid-log phase (O.D-0.6) in 37 °C and then were grown o.n at 25 °C with 0.4 mM IPTG (Sigma). […]
The recombinant SUMO-MyD88-TIR protein (8 µg/ml) was attached to polystyrene microtiter 96 well plates (Nunc, Roskilde, Denmark) at 4 °C o.n. […] After 5 min, 2 N sulfuric acid stop solution was added and absorbance was read at 450 nm in an Infinite 200 Pro plate reader (Tecan). […]

[2] = molecular target: T2, SUMO protein fused to eGFP (Homo sapiens, UniProt P55854); experiment: Binding of Biotin-MyDI to control SUMO-eGFP fusion protein; settings: SUMO-eGFP coated, Streptavidin-HRP read-out
T2 construct: His tag; made in house; host or cells: E. coli BL21 C43 (DE3)

T1 sequence (Q99836 150-296): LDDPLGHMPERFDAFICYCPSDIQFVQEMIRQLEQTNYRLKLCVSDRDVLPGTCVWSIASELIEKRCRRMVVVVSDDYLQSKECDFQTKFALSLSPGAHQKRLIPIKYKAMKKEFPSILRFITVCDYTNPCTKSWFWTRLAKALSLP

Substance: Biotin-MyDI: Biotinylated linear BB loop peptide RDVLPGT, from Bio Basic Inc.
- binding to the MyD88 TIR domain [1]: bound the TIR domain in a concentration dependent manner
- binding to control fusion protein [2]: did not bind at any concentration
